Test results: PMC2903749 (ACS medicinal chemistry letters, 2010)
Read-outs that look alike come from different tables or passages of the source.

Tests used:
Glutamate racemase (GR) = Glutamate racemase (GR) (Bacillus subtilis, UniProt P94556); experiment: biochemical
proline racemase = conditions: cited from earlier work

Glutamate racemase (GR), sequence (P94556 whole entry): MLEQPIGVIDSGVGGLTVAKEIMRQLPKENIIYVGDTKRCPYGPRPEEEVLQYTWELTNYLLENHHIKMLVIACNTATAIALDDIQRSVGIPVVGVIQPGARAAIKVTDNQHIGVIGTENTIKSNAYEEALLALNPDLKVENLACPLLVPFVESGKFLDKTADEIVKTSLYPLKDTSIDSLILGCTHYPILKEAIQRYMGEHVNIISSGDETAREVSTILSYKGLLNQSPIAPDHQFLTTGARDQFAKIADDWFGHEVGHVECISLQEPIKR

`NC(=O)CC[C@H](N)C(=O)O` [glutamine] gave a Ki (Glutamate racemase (GR)) of 50000 µM.
In the case of `O=C(O)c1ccc[nH]1` [PYC, pyrrole-2-carboxylic acid], the Ki (proline racemase; read-out: Ki1, first of two binding states) is given as 4.6 µM and the Ki (proline racemase; read-out: Ki2, second of two binding states) is given as 30 µM.
